Experimental data taken from patent US20110135756A1, “COMPOSITIONS AND METHODS FOR PROTECTING SENSORY HAIR CELLS” (University of Washington, priority 2009, published 2011).
Entries after “also recorded” stand apart in the source; their conditions may differ. Counter-ions that a name gives are not always drawn.

What was measured:
[1] = system: gentamicin entry into hair cells; test: Gentamicin-conjugated Texas Red (GTTR) uptake imaging; type: in vivo, zebrafish (Danio rerio); settings: protective drug at optimal dose; 50 uM GTTR for 3 min
From the text: Gentamicin-conjugated Texas Red Imaging. […] Fish were anesthetized with MS222 and transferred to double wholemount slides for imaging using fluorescence microscopy on an automated stage (Marianas imaging system, Intelligent Imaging Innovations) with a Zeiss Axiovert 200M inverted microscope (Carl Zeiss). Each image contained a z-stack encompassing 2-3 neuromasts as determined by viewing under brightfield illumination. Each fish was imaged once and 5 fish were imaged for each treatment group. Control fish were treated with EM only (mock-treated) or with 3 min of 50 uM GTTR only.
GTTR Image analysis. […] Then 2-3 neuromasts per image were traced and converted to a mask field “Mask 1”. […] Then Boolean addition was used to create the neuromast mask (NM) by taking “Mask1” AND thresholded segment and the background mask (BG) by taking “Mask2” AND thresholded segment. Mean intensity, standard deviation of intensity, sum intensity and volume in voxels were calculated for NM and BG. To create an index of intensity, NM/BG was calculated for each fish and values for mock-treated fish were subtracted and multiplied by 100 to obtain “% intensity above background”.

[2] = system: hair cells of the zebrafish lateral line; test: Dose response testing: protection of zebrafish lateral line hair cells against toxin-induced hair cell death (DASPEI neuromast scoring); type: in vivo, zebrafish (Danio rerio)
Protocol: Animal care. Wildtype Larval zebrafish (Danio rerio) were produced via group matings of adult fish. […] Beginning at 4 days post-fertilization (dpf), fish were fed live paramecia or rotifers daily. Experiments were performed using 5 or 6 dpf larvae. The University of Washington Animal Care and Use Committee approved of the animal procedures described here.
Dose response testing. Drug screen “hits” were tested to determine minimum concentrations of drug and maximum concentrations of toxin that confer protection against hair cell death. All “hits” were tested against all four hair cell toxins regardless of whether a given “hit” was positive with a specific toxin in the screen. 5 or 6 dpf larvae were transferred to 6-well Corning Netwell baskets and placed in 6-well plates (Fisher Scientific) in EM with approximately 10 fish per basket. This allowed for easy transfer between treatment media. Drug and toxins were made up in 7 ml of EM. Larvae were pretreated for one hour in a dose of protective drug followed by cotreatment in protective drug and hair cell toxin. […] Then larvae were rinsed 4× and anesthetized with MS222. Larvae were transferred to glass depression slides and viewed on a Leica epifluorescent microscope with a DASPEI filter (Chroma Technologies, Brattleboro Vt.). […] To find minimum protective concentrations, doses of protective drug tested were 0, 0.5, 1, 5, 10, 50, 100 uM and toxin dose was held at the concentrations used for screening (see above). For those doses of putative protectants that killed the larvae, further doses were tested to determine if intermediate doses were optimal. For dose response curves finding maximum toxin dose at which protection occurs, dose of protective drug was held at previously determined optimal dose and toxin dose was varied as follows: […]

bacteria = test: Antibiotic efficacy of the ototoxic aminoglycoside in presence of protective drug; type: cell-based
[3] = system: hair cells of the zebrafish lateral line; test: Screen of BIOMOL FDA Approved Drug Library for protection against toxin-induced hair cell death (YO-PRO1); type: in vivo, zebrafish (Danio rerio); settings: 4 μg/ml library compound, 1 hr preincubation
Protocol: Drug Library. BIOMOL's FDA Approved Drug Library (Enzo Life Sciences Inc., Plymouth Meeting, Pa., USA (formerly BIOMOL International, L.P.)) was used to screen zebrafish larvae for compounds that protect against toxin-induced hair cell death. The library consists of 640 drugs dissolved at 2 mg/ml in dimethyl sulfoxide (DMSO). The drugs were aliquoted into eight 96-well plates with 80 drugs per plate and stored at 4 C during initial screening and re-testing.
Screening. Larvae were prelabeled with 2 μM YO-PRO1 (Invitrogen, Carlsbad, Calif. USA; Y3603) in embryo medium for 30 min and then rinsed three times. […]
Concentrations and incubation times were chosen based on previously determined dose-response in order to achieve maximal hair cell death at the lowest concentration of toxin (Ou et al. 2007; Owens et al. 2009). […] After incubation in library drug and hair cell toxin, larvae were anesthetized with 0.001% MS222 (3-aminobenzoic acid ethyl ester methanesulfonate; Sigma) and immediately viewed using fluorescence microscopy on an automated stage (Marianas imaging system, Intelligent Imaging Innovations) using a Zeiss Axiovert 200M inverted microscope (Carl Zeiss). Fish were scored on a scale from 0 to 2 with 2 corresponding to mostly healthy hair cells and a 0 corresponding to mostly dead hair cells. […]

[4] = system: hair cells of the zebrafish lateral line; test: Pretreatment experiments (1 hr, 15 min or no pretreatment before 200 uM neomycin); type: in vivo, zebrafish (Danio rerio); settings: for Pre-treatment time prior to aminoglycoside exposure giving greater effectiveness: zebrafish, in vivo
From the text: Pretreatment experiments. […] Controls were mock treated or treated with neomycin only.

[5] = system: hearing (threshold shift); type: in vivo, rat; settings: rats; protectant 25 mg/kg intraperitoneally; kanamycin 25 mg/kg per day i.p. for two weeks
Protocol: Rats were injected with 25 mg/kg per day (intraperitoneal) kanamycin for two weeks, a treatment that induces a hearing loss similar to that observed in humans following aminoglycoside treatment. At higher frequencies, the hearing loss observed in rats treated with kanamycin (without protectant) is a threshold shift of 50 dB and at mid-frequencies a hearing loss observed is 30-40 dB threshold shift.
The PROTO1 was administered intraperitoneally at a dose of 25 mg/kg. The PROTO1 was given as a 3.33 mg/mL solution in 1:1:2:16 (DMSO:Cremophor EL:EtOH:PBS).

sensory hair cells = test: Zebrafish model of protection of sensory hair cells against ototoxins (PROTO1); settings: in vivo
[6] = system: cultured lung cancer cells; test: Inhibition of growth of cultured lung cancer cells in presence of protective drug (in vitro); type: cell-based; settings: in vitro testing
zebrafish hair cells = test: Quinoline ring derivatives: pretreatment protection against neomycin-induced hair cell death (FIG. 1); type: in vivo; settings: 5 dpf zebrafish; 0, 10, 50, 100 or 200 μM pretreatment; 200 μM neomycin
Protocol: (§1) FIG. 1 is a bar graph depicting results of cinchonine pretreatment, which protects against neomycin-induced hair cell death. Five day post-fertilization zebrafish were pretreated with 0, 10, 50, 100 or 200 μM cinchonine prior to treatment with 200 μM neomycin. […] The negative control represents fish not exposed to neomycin. Data bars are mean hair cell survival from 8 to 10 fish. Error bars represent standard deviation from the mean.
as §1, with “Five” for “FIG. 1 is a bar graph depicting results of cinchonine pretreatment, which protects against neomycin-induced hair cell death. Five”

[7] = system: hearing and vestibular function; settings: human, in vivo; cited from earlier work

Row | SMILES | Uptake (whether gentamicin is able to enter cells in the presence of protective drug) [1] | Protection of sensory hair cells against gentamicin ([2]; zebrafish, in vivo) | Effect on antibiotic efficacy of the ototoxic aminoglycoside (bacteria) | other results
1 | NC(=NCc1ccccc1)NC(=O)c1nc(Cl)c(N)nc1N [Benzamil] | attenuate |  |  | 
2 | CCN(CC)CCCC(C)Nc1ccnc2cc(Cl)ccc12 (stereo not drawn) [Chloroquine diphosphate] |  | protect against gentamicin | without diminishing the antibiotic efficacy | 
3 | CNCCC(Oc1ccc(C(F)(F)F)cc1)c1ccccc1 (stereo not drawn) [Fluoxetine HCl] | no block |  | without diminishing the antibiotic efficacy | 
4 | O=C1NCN(c2ccccc2)C12CCN(CCCC(c1ccc(F)cc1)c1ccc(F)cc1)CC2 [Fluspirilene] | no block |  | without diminishing the antibiotic efficacy | 
5 | CN(C)C(=O)C(CCN1CCC(O)(c2ccc(Cl)cc2)CC1)(c1ccccc1)c1ccccc1 [Loperamide] | no block | protect against gentamicin | without diminishing the antibiotic efficacy | Protection of sensory hair cells against kanamycin ([2]; zebrafish, in vivo): protect against kanamycin; Protection in library screen against aminoglycosides (neomycin, gentamicin, kanamycin) and/or cisplatin [3]: protects against all four toxins
6 | CSc1ccc2c(c1)C(N1CCN(C)CC1)Cc1ccccc1S2.O=C(O)/C=C\C(=O)O (stereo not drawn) [Methiothepin maleate] | no block | protect against gentamicin | without diminishing the antibiotic efficacy | Drug dose (optimal dose that confers protection against toxins) ([2]; 5 or 6 dpf larvae, toxin dose held at screening concentration): 10 µM; Pre-treat (necessary pretreatment time before toxin exposure for effective protection) ([4]; followed by 1 hr cotreatment with 200 uM neomycin): 60 min; Pre-treatment time prior to aminoglycoside exposure giving greater effectiveness [4]: 60 min
7 | CCN1CCc2c(sc(NC(=O)Nc3ccc(Cl)cc3)c2C(N)=O)C1 [PROTO1, 2-({[(4-chlorophenyl)amino]carbonyl}amino)-6-ethyl-4,5,6,7-tetrahydrothieno[2,3-c]pyridine-3-carboxamide] |  |  |  | Protection against kanamycin-induced hearing loss [5]: significant protection against hearing loss; Protection of sensory hair cells against ototoxins in the Zebrafish model (sensory hair cells): shown to protect
8 | Fc1ccc([C@@H]2CCNC[C@H]2COc2ccc3c(c2)OCO3)cc1 [Paroxetine HCl] | attenuate | protect against gentamicin | without diminishing the antibiotic efficacy | Protection of sensory hair cells against cisplatin ([2]; zebrafish, in vivo): protective against cisplatin; Effect on inhibition of growth of cultured lung cancer cells [6]: alters inhibition of growth of some cultured lung cancer cells at some doses and not at others
9 | CC(COc1ccccc1)N(CCCl)Cc1ccccc1 (stereo not drawn) [Phenoxybenzamine HCl] | attenuate | protect against gentamicin | without diminishing the antibiotic efficacy | Pre-treatment time prior to aminoglycoside exposure giving greater effectiveness [4]: 15 min
10 | CC(CCc1ccc(O)cc1)NCC(O)c1ccc(O)cc1 (stereo not drawn) [Ractopamine] | block | protect against gentamicin; also recorded: protected | without diminishing the antibiotic efficacy | Protection of sensory hair cells against kanamycin ([2]; zebrafish, in vivo): protect against kanamycin; also recorded: protected; Protection of sensory hair cells from neomycin ([2]; zebrafish, in vivo): protected
11 | O=C(c1ccc(OCCN2CCCCC2)cc1)c1c(-c2ccc(O)cc2)sc2cc(O)ccc12 [Raloxifene HCl] | block | protect against gentamicin | without diminishing the antibiotic efficacy | 
12 | CC/C(=C(\c1ccccc1)c1ccc(OCCN(C)C)cc1)c1ccccc1 [Tamoxifen citrate] | no block |  | without diminishing the antibiotic efficacy | 
13 | CN(C)CCOc1ccc(/C(=C(/CCCl)c2ccccc2)c2ccccc2)cc1 [Toremifene citrate] |  |  | without diminishing the antibiotic efficacy | 
14 | C=C[C@H]1C[N@@]2CC[C@H]1C[C@@H]2[C@@H](O)c1ccnc2ccccc12 [cinchonine] |  |  |  | Hair cell survival after neomycin with cinchonine pretreatment (zebrafish hair cells): increasing hair cell survival
15 | N.N.[Cl][Pt][Cl] [cisplatin] |  |  |  | High frequency hearing loss (>8 kHZ) incidence [7]: ≤ 90%
